Where a name gives a salt, the structure may show the parent alone. Read-outs that look alike come from different tables or passages of the source.
Test system: LMP1 expression in Kem I cells
Experiment: microbe, parasite or virus in culture
Type: cell-based, EBV
Settings: for fold induction at 2.5 µM: human gammaherpesvirus 4, 48 h
[1] = Kem I cells, 2.5 uM, 48 hours, average of replicates 1 and 2
[2] = Kem I cells, 2.5 uM, 48 hours, fold change in LMP1 transcript vs vehicle
[3] = Kem I cells, dose 2.5 uM, 48 hours, LMP1 transcript by in-well qRT-PCR, average of the two replicates
[4] = Kem I cells, dose 2.5 uM, 48 hours, LMP1 transcript by in-well qRT-PCR, screen replicate 1
[5] = Kem I cells, dose 2.5 uM, 48 hours, LMP1 transcript by in-well qRT-PCR, screen replicate 2
[6] = read-out: Average LMP1 Fold Increase, Kem I cells, 2.5 uM, 48 hours, average of replicates 1 and 2
[7] = read-out: Replicate 1-LMP1 Fold Increase, Kem I cells, 2.5 uM, 48 hours, fold change in LMP1 transcript vs vehicle
[8] = read-out: Replicate 2-LMP1 Fold Increase, Kem I cells, 2.5 uM, 48 hours, fold change in LMP1 transcript vs vehicle
[9] = read-out: Average LMP1 Fold Increase, Kem I cells, dose 2.5 uM, 48 hours, LMP1 transcript by in-well qRT-PCR, average of the two replicates
[10] = read-out: Replicate 1-LMP1 Fold Increase, Kem I cells, dose 2.5 uM, 48 hours, LMP1 transcript by in-well qRT-PCR, screen replicate 1
[11] = read-out: Replicate 2-LMP1 Fold Increase, Kem I cells, dose 2.5 uM, 48 hours, LMP1 transcript by in-well qRT-PCR, screen replicate 2

Molecule	Average LMP1 Fold Increase [1]	Replicate 1-LMP1 Fold Increase [2]	Replicate 2-LMP1 Fold Increase [2]	fold induction at 2.5 µM [6]	fold induction at 2.5 µM [7]	fold induction at 2.5 µM [8]	other results
C[C@@H]1C(=O)O[C@H]2C[C@@]34[C@H]5C[C@@H](C(C)(C)C)[C@]36[C@@H](OC(=O)[C@@H]6O)O[C@@]4(C(=O)O5)[C@]21O [Ginkgolide A]	0.91	1.33	0.49	–	–	–	–
O=C(c1ccc(Nc2nccc(-c3cc4ccccc4s3)n2)cc1)N1CCC(N2CCCC2)CC1 [IKK-16 (IKK Inhibitor VII)]	0.30	0.26	0.35	–	–	–	–
Cc1cc(Nc2cc(N3CCN(C)CC3)nc(Sc3ccc(NC(=O)C4CC4)cc3)n2)n[nH]1 [VX-680 (Tozasertib, MK-0457)]	–	–	–	–	–	–	Average LMP1 Fold Increase [3]: 0.74 fold; Replicate 1-LMP1 Fold Increase [4]: 0.96 fold; Replicate 2-LMP1 Fold Increase [5]: 0.52 fold
Fc1cc(F)c2c(c1)[C@H]1C=CC[C@H]1C(c1cccnc1)N2 (mixture of isomers) [Golgicide A]	0.27	0.34	0.19	–	–	–	–
COc1ccc(-c2nc3ccc(C4=NNC(=O)CC4C)cc3[nH]2)cc1 (stereo not drawn) [Pimobendan]	–	–	–	0.87	1.11	0.64	–
Cc1ccccc1C(C(=O)NC1CCCCC1)N(C(=O)Cn1ccnc1C)c1cccc(F)c1 (stereo not drawn) [AGI-5198]	–	–	–	0.82	0.71	0.93	–
COc1cc(Br)c(Nc2nc(-c3c(C)nc4ncccn34)cs2)c(Br)c1 [PTC-209]	–	–	–	–	–	–	Average LMP1 Fold Increase: 0.90; Replicate 1-LMP1 Fold Increase: 0.34; Replicate 2-LMP1 Fold Increase: 1.46
Cc1ccccc1C(=O)Nc1ccc(C(=O)N2CCCC(O)c3cc(Cl)ccc32)c(C)c1 (stereo not drawn) [Tolvaptan]	–	–	–	–	–	–	fold induction at 2.5 µM [9]: 4.67; fold induction at 2.5 µM [10]: 1.11; fold induction at 2.5 µM [11]: 8.24
Cc1nn(-c2ccccc2)c(C)c1/C=N/N1CCN(Cc2ccccc2)CC1 [SANT-1]	0.64	0.31	0.97	–	–	–	–
C=CCn1c(=O)c2cnc(Nc3ccc(N4CCN(C)CC4)cc3)nc2n1-c1cccc(C(C)(C)O)n1 [MK-1775]	–	–	–	5.22	6.01	4.43	–
C[C@@H]1CCN(C(=O)CC#N)C[C@@H]1N(C)c1ncnc2[nH]ccc12 [Tofacitinib (CP-690550,Tasocitinib)]	–	–	–	–	–	–	Average LMP1 Fold Increase [3]: 0.46 fold; Replicate 1-LMP1 Fold Increase [4]: 0.09 fold; Replicate 2-LMP1 Fold Increase [5]: 0.82 fold
O=C(N/N=C/c1ccc(O)c(O)c1)c1cc2ccccc2cc1O [Dynasore]	–	–	–	0.77	0.64	0.89	–
O=C1NC(=O)/C(=C/c2cccc(C(F)(F)F)c2)S1 [SMI-4a]	0.41	0.29	0.53	–	–	–	–
CC(=O)O[C@H]1C[C@@H]2CC[C@@H]3[C@H](CC[C@@]4(C)[C@H]3C[C@H]([N+]3(C)CCCCC3)[C@@H]4OC(C)=O)[C@@]2(C)C[C@@H]1[N+]1(C)CCCCC1.[Br-].[Br-] [Pancuronium dibromide]	0.28	0.25	0.31	–	–	–	–
COc1cc(Nc2c(C#N)cnc3cc(OCCCN4CCN(C)CC4)c(OC)cc23)c(Cl)cc1Cl [Bosutinib (SKI-606)]	0.81	0.36	1.26	–	–	–	–
CCc1cncnc1N1CCN(Cc2nc3ccc(C(F)(F)F)cc3[nH]2)CC1 [PF-4708671]	0.74	1.30	0.18	–	–	–	–
O=C(O)CNC(=O)c1c(O)c2ccccc2n(Cc2ccccc2)c1=O [IOX2]	0.39	0.40	0.38	–	–	–	–
CC(C)C[C@H](NC(=O)[C@H](Cc1ccccc1)NC(=O)c1cnccn1)B(O)O [Bortezomib (PS-341)]	77.22	150.06	4.38	–	–	–	–

Molecule	Average LMP1 Fold Increase [1]	Replicate 1-LMP1 Fold Increase [2]	Replicate 2-LMP1 Fold Increase [2]	fold induction at 2.5 µM [6]	fold induction at 2.5 µM [7]	fold induction at 2.5 µM [8]	other results
CC12CC3CC(C)(C1)CC(N)(C3)C2 [Memantine HCl]	–	–	–	0.42	0.55	0.3	–
Cc1[nH]c(/C=C2\C(=O)Nc3ccc(S(=O)(=O)Cc4c(Cl)cccc4Cl)cc32)c(C)c1C(=O)N1CCC[C@@H]1CN1CCCC1 [PHA-665752]	–	–	–	0.69	0.55	0.84	–
COc1cc(OC)c(NC(=O)Nc2cc(C)on2)cc1Cl [PNU-120596]	0.30	0.17	0.44	–	–	–	–
NC1(Cc2ccc(Cl)cc2)CCN(c2ncnc3[nH]ccc23)CC1 [CCT128930]	0.59	0.40	0.78	–	–	–	–
CCc1cccc2c3c([nH]c12)C(CC)(CC(=O)O)OCC3 (stereo not drawn) [Etodolac]	–	–	–	0.84	0.57	1.1	–
Cc1ccc(S(=O)(=O)c2ccc([N+](=O)[O-])o2)cc1 [NSC697923]	0.09	0.10	0.09	–	–	–	–
CC(C)NC[C@@H](C(=O)N1CCN(c2ncnc3c2[C@H](C)C[C@H]3O)CC1)c1ccc(Cl)cc1 [GDC-0068]	0.27	0.27	0.27	–	–	–	–
CC(=O)Nc1nc2c(Oc3cc(-c4ccc(C(F)(F)F)cc4)ncn3)cccc2s1 [AMG-517]	–	–	–	0.52	0.56	0.48	–
CCCCCCCCCCCC1=C(O)C(=O)C=C(O)C1=O [Embelin]	–	–	–	0.59	0.43	0.74	–
O=C(O[C@H]1C[C@H]2CC[C@@H](C1)[N+]21CCCC1)C(O)(c1ccccc1)c1ccccc1 [Trospium chloride]	–	–	–	–	–	–	fold induction at 2.5 µM [9]: 0.35; fold induction at 2.5 µM [10]: 0.33; fold induction at 2.5 µM [11]: 0.37
C#Cc1cccc(Nc2ncnc3cc4c(cc23)OCCOCCOCCO4)c1 [Icotinib]	–	–	–	8.04	15.7	0.34	–
CCc1c(C(=O)C(N)=O)c2c(OCC(=O)O)cccc2n1Cc1ccccc1 [Varespladib (LY315920)]	–	–	–	–	–	–	Average LMP1 Fold Increase [3]: 0.52 fold; Replicate 1-LMP1 Fold Increase [4]: 0.35 fold; Replicate 2-LMP1 Fold Increase [5]: 0.69 fold
CC(C)n1c(/C=C/C(O)CC(O)CC(=O)O)c(-c2ccc(F)cc2)c2ccccc21 (stereo not drawn) [Fluvastatin Sodium]	–	–	–	0.94	0.84	1.04	–
O=C(Nc1ccccc1)N1CCN(c2nc(-c3ccccc3)ns2)CC1 [JNJ-1661010]	0.51	0.31	0.70	–	–	–	–
HA14-1	0.73	0.62	0.83	–	–	–	–
Cc1cc(SCc2sc(-c3ccc(C(F)(F)F)c(F)c3)nc2C)ccc1OCC(=O)O [GW0742]	0.76	0.53	0.99	–	–	–	–
O=C(C[S+]([O-])Cc1ccco1)NC/C=C\COc1cc(CN2CCCCC2)ccn1 (stereo not drawn) [Lafutidine]	–	–	–	0.85	0.94	0.76	–

From patent US20230053688A1, “METHODS TO ALTER LATENCY IN EBV+ MALIGNANCIES” (Cornell University, priority 2020, published 2023)
